According to US8637537B2, “Serine/threonine kinase inhibitors” (Genentech, Inc., priority 2011, dated 2014):
pKi: −log10 of the molar value.

Molecular target: T1, human recombinant GST-PAK1-KD protein (Homo sapiens, UniProt Q13153)
T1 construct: residues #249-545 of human PAK1, UniProtKP/Swiss Q13153; His6 (N); made in house; host or cells: Sf9 insect cells, pAcGP67 baculovirus expression vector
Assay: GST-PAK1-KD (kinase domain) biochemical assay, microfluidic mobility shift
Details: Table II, PAK1 Ki class; read-out: Ki

T1 sequence (Q13153 249-545): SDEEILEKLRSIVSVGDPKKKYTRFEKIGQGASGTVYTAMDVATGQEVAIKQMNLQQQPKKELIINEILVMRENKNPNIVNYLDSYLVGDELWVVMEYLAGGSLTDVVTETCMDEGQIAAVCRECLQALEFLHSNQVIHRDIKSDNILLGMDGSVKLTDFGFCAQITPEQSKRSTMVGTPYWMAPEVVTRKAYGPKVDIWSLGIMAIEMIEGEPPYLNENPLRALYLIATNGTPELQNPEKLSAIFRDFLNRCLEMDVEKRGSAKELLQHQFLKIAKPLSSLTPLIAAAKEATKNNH

Row | pKi | SMILES
1 | 6.00 to 6.60 | CCc1cc(Nc2nc(N(C)Cc3ccc4[nH]cnc4c3Cl)ncc2F)n[nH]1 [II-69, N^2-((4-chloro-1H-benzo[d]imidazol-5-yl)methyl)-N^4-(5-ethyl-1H-pyrazol-3-yl)-5-fluoro-N^2-methylpyrimidine-2,4-diamine]
2 | > 7.30 | CCN(Cc1cc(F)cc2[nH]ncc12)c1nccc(Nc2cc(C3CC3)[nH]n2)n1 [II-70, N^4-(5-cyclopropyl-1H-pyrazol-3-yl)-N^2-ethyl-N^2-((6-fluoro-1H-indazol-4-yl)methyl)pyrimidine-2,4-diamine]
3 | > 7.30 | C[C@H](Nc1ncc(F)c(Nc2cc(C3CC3)[nH]n2)n1)c1cc(F)cc2[nH]ncc12 [II-71, (S)-N^4-(5-cyclopropyl-1H-pyrazol-3-yl)-5-fluoro-N^2-(1-(6-fluoro-1H-indazol-4-yl)ethyl)pyrimidine-2,4-diamine]
4 | > 7.30 | C[C@H](O)CN(Cc1cc(F)cc2[nH]ncc12)c1nccc(Nc2cc(C3CC3)[nH]n2)n1 [II-72, (S)-1-((4-((5-cyclopropyl-1H-pyrazol-3-yl)amino)pyrimidin-2-yl)((6-fluoro-1H-indazol-4-yl)methyl)amino)propan-2-ol]
5 | > 7.30 | Fc1ccc2[nH]ncc2c1CNc1nccc(Nc2cc(C3CC3)[nH]n2)n1 [II-75, N^4-(5-cyclopropyl-1H-pyrazol-3-yl)-N^2-((5-fluoro-1H-indazol-4-yl)methyl)pyrimidine-2,4-diamine]
6 | > 7.30 | Cc1cc(Nc2ccnc(N(C)Cc3ccc4[nH]cnc4c3Cl)n2)n[nH]1 [II-76, N^2-((4-chloro-1H-benzo[d]imidazol-5-yl)methyl)-N^2-methyl-N^4-(5-methyl-1H-pyrazol-3-yl)pyrimidine-2,4-diamine]
7 | > 7.30 | OCCN(Cc1cccc2[nH]ncc12)c1nccc(Nc2cc(C3CC3)[nH]n2)n1 [II-77, 2-(((1H-indazol-4-yl)methyl)(4-((5-cyclopropyl-1H-pyrazol-3-yl)amino)pyrimidin-2-yl)amino)ethanol]
8 | > 7.30 | c1cc(Nc2cc(C3CC3)[nH]n2)nc(N(Cc2ccc3[nH]cnc3c2)C2CC2)n1 [II-78, N^2-((1H-benzo[d]imidazol-5-yl)methyl)-N^2-cyclopropyl-N^4-(5-cyclopropyl-1H-pyrazol-3-yl)pyrimidine-2,4-diamine]
9 | > 7.30 | C[C@H](c1cc(Nc2ccnc(NCc3ccc4[nH]cnc4c3Cl)n2)n[nH]1)C1CC1 [II-79, (S)-N^2-((4-chloro-1H-benzo[d]imidazol-5-yl)methyl)-N^4-(5-(1-cyclopropylethyl)-1H-pyrazol-3-yl)pyrimidine-2,4-diamine]
10 | > 7.30 | COC[C@@H](C)c1cc(Nc2ccnc(N(C)Cc3ccc4[nH]cnc4c3Cl)n2)n[nH]1 [II-80, (S)-N^2-((4-chloro-1H-benzo[d]imidazol-5-yl)methyl)-N^4-(5-(1-methoxypropan-2-yl)-1H-pyrazol-3-yl)-N^2-methylpyrimidine-2,4-diamine]
11 | > 7.30 | Fc1cc(CNc2nccc(Nc3cc([C@H]4C[C@@H]4F)[nH]n3)n2)c2cc[nH]c2c1 [II-82, N^2-((6-fluoro-1H-indol-4-yl)methyl)-N^4-(5-((1R,2S)-2-fluorocyclopropyl)-1H-pyrazol-3-yl)pyrimidine-2,4-diamine]
12 | > 7.30 | CN(C)CCN(Cc1cccc2[nH]ccc12)c1nccc(Nc2cc([C@@H]3C[C@H]3F)[nH]n2)n1 [II-83, N^2-((1H-indol-4-yl)methyl)-N^2-(2-(dimethylamino)ethyl)-N^4-(5-((1S,2R)-2-fluorocyclopropyl)-1H-pyrazol-3-yl)pyrimidine-2,4-diamine]
13 | > 7.30 | CN(Cc1cccc2[nH]ncc12)c1nccc(Nc2cc(C3CC3)[nH]n2)n1 [II-84, N^2-((1H-indazol-4-yl)methyl)-N^4-(5-cyclopropyl-1H-pyrazol-3-yl)-N^2-methylpyrimidine-2,4-diamine]
14 | > 7.30 | CCN(Cc1cc(F)cc2[nH]ncc12)c1ncc(F)c(Nc2cc(C3CC3)[nH]n2)n1 [II-85, N^4-(5-cyclopropyl-1H-pyrazol-3-yl)-N^2-ethyl-5-fluoro-N^2-((6-fluoro-1H-indazol-4-yl)methyl)pyrimidine-2,4-diamine]
15 | > 7.30 | CN(C)CCN(Cc1cc(F)cc2[nH]ncc12)c1ncc(F)c(Nc2cc(C3CC3)[nH]n2)n1 [II-86, N^4-(5-cyclopropyl-1H-pyrazol-3-yl)-N^2-(2-(dimethylamino)ethyl)-5-fluoro-N^2-((6-fluoro-1H-indazol-4-yl)methyl)pyrimidine-2,4-diamine]
16 | > 7.30 | CCN(Cc1cccc2[nH]ncc12)c1ncc(F)c(Nc2cc(C3CC3)[nH]n2)n1 [II-87, N^2-((1H-indazol-4-yl)methyl)-N^4-(5-cyclopropyl-1H-pyrazol-3-yl)-N^2-ethyl-5-fluoropyrimidine-2,4-diamine]
17 | > 7.30 | CN(C)CCN(Cc1cccc2[nH]ccc12)c1nccc(Nc2cc([C@H]3C[C@@H]3F)[nH]n2)n1 [II-88, N^2-((1H-indol-4-yl)methyl)-N^2-(2-(dimethylamino)ethyl)-N^4-(5-((1R,2S)-2-fluorocyclopropyl)-1H-pyrazol-3-yl)pyrimidine-2,4-diamine]
18 | > 7.30 | CN(C)CCN(Cc1cccc2[nH]ccc12)c1nccc(Nc2cc(C3CC3)[nH]n2)n1 [II-89, N^2-((1H-indol-4-yl)methyl)-N^4-(5-cyclopropyl-1H-pyrazol-3-yl)-N^2-(2-(dimethylamino)ethyl)-pyrimidine-2,4-diamine]
19 | > 7.30 | c1cc(Nc2cc(C3CC3)[nH]n2)nc(N(Cc2ccc3[nH]cnc3c2)C2CCNCC2)n1 [II-90, N^2-((1H-benzo[d]imidazol-5-yl)methyl)-N^4-(5-cyclopropyl-1H-pyrazol-3-yl)-N^2-(piperidin-4-yl)pyrimidine-2,4-diamine]
20 | > 7.30 | Cc1cc(Nc2nc(N(C)Cc3ccc4[nH]cnc4c3Cl)ncc2F)n[nH]1 [II-91, N^2-((4-chloro-1H-benzo[d]imidazol-5-yl)methyl)-5-fluoro-N^2-methyl-N^4-(5-methyl-1H-pyrazol-3-yl)pyrimidine-2,4-diamine]
21 | > 7.30 | CCN(Cc1cc(F)cc2[nH]ncc12)c1nccc(Nc2cc([C@H](C)C3CC3)[nH]n2)n1 [II-92, (R)-N^4-(5-(1-cyclopropylethyl)-1H-pyrazol-3-yl)-N^2-ethyl-N^2((6-fluoro-1H-indazol-4-yl)methyl)pyrimidine-2,4-diamine]
22 | > 7.30 | CN(Cc1cccc2[nH]ncc12)c1ncc(F)c(Nc2cc(C3CC3)[nH]n2)n1 [II-93, N^2-((1H-indazol-4-yl)methyl)-N^4-(5-cyclopropyl-1H-pyrazol-3-yl)-5-fluoro-N^2-methylpyrimidine-2,4-diamine]
23 | > 7.30 | CO[C@@H](C)CN(Cc1cc(F)cc2[nH]ncc12)c1nccc(Nc2cc(C3CC3)[nH]n2)n1 [II-95, (S)-N^4-(5-cyclopropyl-1H-pyrazol-3-yl)-N^2-((6-fluoro-1H-indazol-4-yl)methyl)-N^2-(2-methoxypropyl)pyrimidine-2,4-diamine]
24 | > 7.30 | CC(C)N(Cc1cc(F)cc2[nH]ncc12)c1ncc(F)c(Nc2cc(C3CC3)[nH]n2)n1 [II-96, N^4-(5-cyclopropyl-1H-pyrazol-3-yl)-5-fluoro-N^2-((6-fluoro-1H-indazol-4-yl)methyl)-N^2-isopropylpyrimidine-2,4-diamine]
25 | > 7.30 | COc1cc(CNc2ncc(F)c(Nc3cc(C4CC4)[nH]n3)n2)c2cn[nH]c2c1 [II-98, N^4-(5-cyclopropyl-1H-pyrazol-3-yl)-5-fluoro-N^2-((6-methoxy-1H-indazol-4-yl)methyl)pyrimidine-2,4-diamine]
